In US7521444B2, “Compounds for the treatment of hepatitis C” (Bristol-Myers Squibb Company, priority 2007, dated 2009):

Tests used:
HCV NS5B = target: T1, HCV NS5B (Hepatitis C virus genotype 1b, UniProt Q9WMX2); test: HCV NS5B RdRp enzyme assay (standard or modified); type: biochemical; settings: HCV NS5B RdRp genotype 1b enzyme; standard or modified assay not stated
T1 construct: The protein was expressed with an 18 amino acid C-terminal truncation to enhance the solubility; made in house; host or cells: E. coli BL21(DE3), pET21a
Experimental: HCV NS5B RdRp cloning, expression, and purification. The cDNA encoding the NS5B protein of HCV, genotype 1b, was cloned into the pET21a expression vector. The protein was expressed with an 18 amino acid C-terminal truncation to enhance the solubility. The E. coli competent cell line BL21(DE3) was used for expression of the protein. Cultures were grown at 37° C. for ˜4 hours until the cultures reached an optical density of 2.0 at 600 nm. The cultures were cooled to 20° C. and induced with 1 mM IPTG. Fresh ampicillin was added to a final concentration of 50 μg/ml and the cells were grown overnight at 20° C.
Cell pellets (3 L) were lysed for purification to yield 15-24 mgs of purified NS5B. The lysis buffer consisted of 20 mM Tris-HCl, pH 7.4, 500 mM NaCl, 0.5% triton X-100, 1 mM DTT, 1 mM EDTA, 20% glycerol, 0.5 mg/ml lysozyme, 10 mM MgCl2, 15 ug/ml deoxyribonuclease I, and Complete TM protease inhibitor tablets (Roche). After addition of the lysis buffer, frozen cell pellets were resuspended using a tissue homogenizer. To reduce the viscosity of the sample, aliquots of the lysate were sonicated on ice using a microtip attached to a Branson sonicator. The sonicated lysate was centrifuged at 100,000×g for 1 hr at 4° C. and filtered through a 0.2 μm filter unit (Corning).
The protein was purified using two sequential chromatography steps: Heparin sepharose CL-6B and polyU sepharose 4B (Pharmacia). The chromatography buffers were identical to the lysis buffer but contained no lysozyme, deoxyribonuclease I, MgCl2 or protease inhibitor and the NaCl concentration of the buffer was adjusted according to the requirements for charging the protein onto the column. Each column was eluted with a NaCl gradient which varied in length from 5-50 column volumes depending on the column type. After the final chromatography step, the resulting purity of the enzyme is >90% based on SDS-PAGE analysis. The enzyme was aliquoted and stored at −80° C.
Standard HCV NS5B RdRp enzyme assay. HCV RdRp genotype 1b assays were run in a final volume of 60 μl in 96 well plates (Corning 3600). The assay buffer is composed of 20 mM Hepes, pH 7.5, 2.5 mM KCl, 2.5 mM MgCl2, 1 mM DTT, 1.6 U RNAse inhibitor (Promega N2515), 0.01 mg/ml BSA (Sigma B6917), and 2% glycerol. All compounds were serially diluted (3-fold) in DMSO and diluted further in water such that the final concentration of DMSO in the assay was 2%. HCV RdRp genotype 1b enzyme was used at a final concentration of 28 nM. A polyA template was used at 6 nM, and a biotinylated oligo-dT12 primer was used at 180 nM final concentration. Template was obtained commercially (Amersham 27-4110). Biotinylated primer was prepared by Sigma Genosys. 3H-UTP was used at 0.6 μCi (0.29 μM total UTP). Reactions were initiated by the addition of enzyme, incubated at 30° C. for 60 min, and stopped by adding 25 μl of 50 mM EDTA containing SPA beads (4 μg/μl, Amersham RPNQ 0007). Plates were read on a Packard Top Count NXT after >1 hr incubation at room temperature.
Modified HCV NS5B RdRp enzyme assay. A modified enzyme assay was performed essentially as described for the standard enzyme assay except for the following: The biotinylated oligo dT12 primer was precaptured on streptavidin-coated SPA beads by mixing primer and beads in assay buffer and incubating at room temperature for one hour. Unbound primer was removed after centrifugation. The primer-bound beads were resuspended in 20 mM Hepes buffer, pH 7.5 and used in the assay at final concentrations of 20 nM primer and 0.67 μg/μl beads. Order of addition in the assay: enzyme (1.75 nM) was added to diluted compound followed by the addition of a mixture of template (0.36 nM), 3H-UTP (0.6 μCi, 0.29 μM), and primer-bound beads, to initiate the reaction; concentrations given are final. Reactions were allowed to proceed for 4 hours at 30° C.
IC50 values for compounds were determined using seven different [I]. […]

HCV replicon cells = test: HCV replicon FRET / luciferase assay; type: cell-based; settings: Hepatitis C virus, 50% reduction in FRET or luciferase activity
Experimental: FRET Assay Preparation. The HCV FRET screening assay was performed in 96-well cell culture plates. The FRET peptide (Anaspec, Inc.) (Taliani et al., Anal. Biochem. 1996, 240, 60-67) contains a fluorescence donor, EDANS, near one end of the peptide and an acceptor, DABCYL, near the other end. The fluorescence of the peptide is quenched by […] resonance energy transfer (RET) between the donor and the acceptor, but as the NS3 protease cleaves the peptide the products are released from RET quenching and the fluorescence of the donor becomes apparent. The assay reagent was made as follows: 5× cell Luciferase cell culture lysis reagent from Promega (#E153A) diluted to 1× with dH2O, NaCl added to 150 mM final, the FRET peptide diluted to 20 μM final from a 2 mM stock.
To prepare plates, HCV replicon cells, with or without a Renilla luciferase reporter gene, were trypsinized and plated in a 96-well plate with titrated test compounds added in columns 3 through 12; columns 1 and 2 contained a control compound (HCV control inhibitor), and the bottom row contained cells with DMSO only. The plates were then placed in a CO2 incubator at 37° C.
Assays. Subsequent to addition of the test compounds described above (FRET Assay Preparation), at various times the plate was removed and Alamar blue solution (Trek Diagnostics, #00-100) was added to measure cellular toxicity. After reading in a Cytoflour 4000 instrument (PE Biosystems), plates were rinsed with PBS and then used for FRET assay by the addition of 30 ul of the FRET peptide assay reagent described above (FRET Assay Preparation) per well. The plate was then placed into the Cytoflour 4000 instrument which had been set to 340 excite/490 emission, automatic mode for up to 20 cycles and the plate read in a kinetic mode. Typically, the signal to noise using an endpoint analysis after the reads was at least three-fold. Alternatively, after Alamar blue reading, plates were rinsed with PBS, then used for luciferase assay using the Promega Dual-Glo Luciferase Assay System or the Promega EnduRen Live Cell Substrate assay.
Compound analysis was performed by quantification of the relative HCV replicon inhibition and the relative cytotoxicity values. To calculate cytoxicity values, the average Alamar Blue fluorescence signals from the control wells were set as 100% non-toxic. The individual signals in each of the compound test wells were then divided by the average control signal and multiplied by 100% to determine […]. To calculate the HCV replicon inhibition values, an average background value was obtained from the two wells containing the highest amount of HCV control inhibitor at the end of the assay period. These numbers were similar to those obtained from naïve Huh-7 cells. The background numbers were then subtracted from the average signal obtained from the control wells and this number was used as 100% activity. The individual signals in each of the compound test wells were then divided by the averaged control values after background subtraction and multiplied by 100% to determine percent activity. EC50 values were calculated as the concentration which caused a 50% reduction in FRET or luciferase activity. The two numbers generated for the compound plate, percent cytoxicity and percent activity, were used to determine compounds of interest for further analysis.

T1 sequence (Q9WMX2 2420-2992): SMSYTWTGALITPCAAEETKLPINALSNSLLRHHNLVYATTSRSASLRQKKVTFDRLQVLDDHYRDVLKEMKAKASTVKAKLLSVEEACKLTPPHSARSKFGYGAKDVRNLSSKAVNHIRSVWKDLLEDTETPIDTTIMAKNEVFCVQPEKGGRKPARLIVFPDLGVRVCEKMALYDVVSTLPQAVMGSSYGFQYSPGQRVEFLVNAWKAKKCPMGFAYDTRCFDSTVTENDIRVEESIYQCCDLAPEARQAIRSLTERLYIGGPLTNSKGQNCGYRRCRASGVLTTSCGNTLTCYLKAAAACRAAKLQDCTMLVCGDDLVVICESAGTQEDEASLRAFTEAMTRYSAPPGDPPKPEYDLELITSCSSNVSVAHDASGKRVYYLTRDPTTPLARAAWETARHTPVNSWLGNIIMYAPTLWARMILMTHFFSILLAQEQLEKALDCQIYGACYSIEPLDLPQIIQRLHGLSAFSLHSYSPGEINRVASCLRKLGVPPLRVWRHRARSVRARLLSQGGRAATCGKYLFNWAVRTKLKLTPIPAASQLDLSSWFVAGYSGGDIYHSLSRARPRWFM

COc1ccc2c(c1)C1CC1(C(=O)N1CCN3CCC[C@H]3C1)Cn1c-2c(C2CCCCC2)c2ccc(C(=O)NS(=O)(=O)N3CCC3)cc21 (some centres unmarked)
IC50 (HCV NS5B): 4.58 to 500 nM | EC50 (HCV replicon cells): 4.58 to 500 nM

COc1ccc2c(c1)C1CC1(C(=O)N1CCN3CCC[C@@H]3C1)Cn1c-2c(C2CCCCC2)c2ccc(C(=O)NS(=O)(=O)N3CCC3)cc21 (some centres unmarked)
IC50 (HCV NS5B): 4.58 to 500 nM | EC50 (HCV replicon cells): 4.58 to 500 nM

COc1ccc2c(c1)C1CC1(C(=O)N1CC3CN(C(=O)OC(C)(C)C)CC3C1)Cn1c-2c(C2CCCCC2)c2ccc(C(=O)NS(=O)(=O)N(C)C)cc21 (centres unmarked)
IC50 (HCV NS5B): 4.58 to 500 nM | EC50 (HCV replicon cells): 4.58 to 500 nM

COc1ccc2c(c1)C1CC1(C(=O)N1CCN3CCCC3C1)Cn1c-2c(C2CCCCC2)c2ccc(C(=O)NS(=O)(=O)C3CC3)cc21 (centres unmarked)
IC50 (HCV NS5B): 4.58 to 500 nM | EC50 (HCV replicon cells): 4.58 to 500 nM

COc1ccc2c(c1)C1CC1(C(=O)N1CCC[C@H]3CN(C)C[C@H]31)Cn1c-2c(C2CCCCC2)c2ccc(C(=O)NS(=O)(=O)N(C)C)cc21 (some centres unmarked)
IC50 (HCV NS5B): 4.58 to 500 nM | EC50 (HCV replicon cells): 4.58 to 500 nM

COc1ccc2c(c1)C1CC1(C(=O)N1CC3CN(C(C)=O)CC3C1)Cn1c-2c(C2CCCCC2)c2ccc(C(=O)NS(=O)(=O)N(C)C)cc21 (centres unmarked)
IC50 (HCV NS5B): 4.58 to 500 nM | EC50 (HCV replicon cells): 4.58 to 500 nM

COc1ccc2c(c1)C1CC1(C(=O)N1C[C@@H]3CCCN3C[C@@H]1Cc1ccccc1)Cn1c-2c(C2CCCCC2)c2ccc(C(=O)NS(=O)(=O)N(C)C)cc21 (some centres unmarked)
IC50 (HCV NS5B): 4.58 to 500 nM | EC50 (HCV replicon cells): 4.58 to 500 nM
